By DC50 is commonly meant the midpoint of the concentration-degradation curve.

This is an account of results in patent US20240238424A1, “HETEROBIFUNCTIONAL COMPOUNDS AND METHODS OF TREATING DISEASE” (Halda Therapeutics OpCo, Inc., priority 2021, published 2024).

T1 sequence (P15170 whole entry): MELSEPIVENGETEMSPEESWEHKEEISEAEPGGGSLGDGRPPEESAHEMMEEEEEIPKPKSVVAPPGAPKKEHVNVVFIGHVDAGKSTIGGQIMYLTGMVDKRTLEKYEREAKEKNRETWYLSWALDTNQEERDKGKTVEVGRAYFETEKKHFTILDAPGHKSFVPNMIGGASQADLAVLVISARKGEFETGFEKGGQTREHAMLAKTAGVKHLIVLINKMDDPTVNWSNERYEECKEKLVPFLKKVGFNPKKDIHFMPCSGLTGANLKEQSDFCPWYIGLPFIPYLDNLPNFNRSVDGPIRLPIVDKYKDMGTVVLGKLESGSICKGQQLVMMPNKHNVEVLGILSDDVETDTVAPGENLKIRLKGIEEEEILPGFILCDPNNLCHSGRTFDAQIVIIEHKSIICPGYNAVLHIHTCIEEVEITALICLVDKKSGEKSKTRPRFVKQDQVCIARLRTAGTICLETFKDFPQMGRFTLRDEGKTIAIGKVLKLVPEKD
T1 sequence (Q96SW2 whole entry): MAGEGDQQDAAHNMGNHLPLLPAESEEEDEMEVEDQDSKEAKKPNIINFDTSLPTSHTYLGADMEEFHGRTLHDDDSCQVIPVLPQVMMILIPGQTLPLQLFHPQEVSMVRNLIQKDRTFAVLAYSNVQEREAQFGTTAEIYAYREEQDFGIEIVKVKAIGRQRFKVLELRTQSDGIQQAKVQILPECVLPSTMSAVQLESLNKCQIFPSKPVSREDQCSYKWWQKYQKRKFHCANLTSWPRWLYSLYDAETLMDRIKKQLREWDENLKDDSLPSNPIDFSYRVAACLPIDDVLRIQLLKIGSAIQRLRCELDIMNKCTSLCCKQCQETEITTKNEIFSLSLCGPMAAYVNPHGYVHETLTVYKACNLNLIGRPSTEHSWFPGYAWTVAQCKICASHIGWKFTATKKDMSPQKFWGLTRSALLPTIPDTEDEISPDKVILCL
T1 sequence (Q16531 whole entry partner): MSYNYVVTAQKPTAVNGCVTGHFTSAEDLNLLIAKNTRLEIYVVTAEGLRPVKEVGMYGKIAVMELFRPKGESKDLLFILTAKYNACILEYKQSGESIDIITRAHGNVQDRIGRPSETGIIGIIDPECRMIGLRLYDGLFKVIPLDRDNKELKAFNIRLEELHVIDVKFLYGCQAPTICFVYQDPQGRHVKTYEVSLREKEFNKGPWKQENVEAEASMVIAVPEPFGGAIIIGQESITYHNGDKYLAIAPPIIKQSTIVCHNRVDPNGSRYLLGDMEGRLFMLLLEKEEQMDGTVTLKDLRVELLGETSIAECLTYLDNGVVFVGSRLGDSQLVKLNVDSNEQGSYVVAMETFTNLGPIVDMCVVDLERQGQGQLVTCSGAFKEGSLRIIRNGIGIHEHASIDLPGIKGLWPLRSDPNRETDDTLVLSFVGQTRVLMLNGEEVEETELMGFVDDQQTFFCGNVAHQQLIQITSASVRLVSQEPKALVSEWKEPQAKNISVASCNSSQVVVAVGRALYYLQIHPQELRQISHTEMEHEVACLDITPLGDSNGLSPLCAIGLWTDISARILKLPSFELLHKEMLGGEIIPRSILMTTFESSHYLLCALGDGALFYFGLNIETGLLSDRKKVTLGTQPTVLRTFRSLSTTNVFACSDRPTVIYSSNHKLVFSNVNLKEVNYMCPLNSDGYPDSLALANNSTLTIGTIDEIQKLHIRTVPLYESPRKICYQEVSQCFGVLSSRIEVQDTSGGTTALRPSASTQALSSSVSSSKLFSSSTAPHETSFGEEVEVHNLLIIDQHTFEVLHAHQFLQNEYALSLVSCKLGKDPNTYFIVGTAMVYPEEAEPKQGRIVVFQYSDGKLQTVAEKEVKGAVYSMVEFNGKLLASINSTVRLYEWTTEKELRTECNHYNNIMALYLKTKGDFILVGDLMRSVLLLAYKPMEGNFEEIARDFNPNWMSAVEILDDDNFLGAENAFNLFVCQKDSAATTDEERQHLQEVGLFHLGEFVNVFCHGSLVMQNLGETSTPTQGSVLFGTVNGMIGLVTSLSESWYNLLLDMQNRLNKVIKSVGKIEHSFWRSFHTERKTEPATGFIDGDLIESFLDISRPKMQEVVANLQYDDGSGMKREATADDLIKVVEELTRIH

One experiment concerns the target T1, GSPT1 (Homo sapiens, UniProt P15170+Q96SW2).
T1 construct: host or cells: HEK293 LgBiT cell line
Briefly: GSPT1 HiBit degradation assay. Type of experiment: cell-based. To be noted: Table 3; HEK293 LgBiT cells expressing GSPT1_HiBiT, luminescence after 6 hours. From the text:
Promega developed a HEK293 cell line that constitutively expresses LgBiT protein and GSPT1_HiBiT fusion protein. When both proteins are present, the HiBiT portion of the fusion protein combines with LgBiT protein to form a functional luciferase enzyme. Endurazine, a cell permeable small molecule, is converted by cellular esterases into furimazine, which the luciferase enzyme uses as a substrate to generate luminescence. When GSPT1 is degraded, the HiBit is also degraded. This prevents formation of fully functional luciferase, leading to a loss in luminescence. GSPT1 degradation therefore correlates with a decrease in luminescence and can be measured continuously over time. The concentration of compound at which 50% GSPT1 degradation occurs (DC50) was calculated using this system.
• HEK293 LgBiT Cell line (Promega Custom) • Endurazine Substrate (Promega Cat. #N2570) • DMEM (Gibco Cat. #11995) • Penicillin/Streptomycin (Gibco Cat. #15140-122) • Heat Inactivated Fetal Bovine Serum (Gibco Cat. #A38400-01) • Hygromycin B (Gibco Cat. #10-687-010) • 384 Well TC Treated White Microplate (Perkin Elmer Cat. #6007680)
HEK293 LgBiT cells were cultured in DMEM Media supplemented with 10% FBS, 5% Pen/Strep, 200 μg/ml hygromycin and stored in an incubator set at 37° C. and 5% CO2. 18-24 hours prior to compound treatment, HEK293 LgBiT cells were seeded at 1000 cells/well in a 384-well microplate in 25 μl complete media. The plate was spun at 300 g for 30 seconds and stored in the incubator overnight. The next day, compounds were titrated in DMSO and added to media supplemented with endurazine substrate. A 25 ul aliquot of 2× compound/endurazine in media were then added to the 384-well microplate with seeded cells. (Endurazine was used at a final concentration of 0.5×). The plate was spun at 300 g for 30 seconds and stored in the incubator. After 6 hours the plate was read on a Perkin Elmer MultiMode Plate Reader Envision 2105 to measure luminescence signal.
The compound `C=CC(=O)Nc1cc(Nc2nccc(-c3cn(C)c4ccccc34)n2)c(OC)cc1N(C)CCN(C)CCOCCOCCOCCOCCOCCOCCOCCOCCc1cc(Cl)cc(NC(=O)NCc2ccc3c(c2)CN(C2CCC(=O)NC2=O)C3=O)c1` (centres unmarked) [Compound I-35] gave a DC50 greater than 10 µM.

Regarding `C=C(F)C(=O)N1CCN(c2nc(OC[C@H]3CCCN3CCCOCCOCCOCCOCCOCCOCCCCCCCCc3cc(Cl)cc(NC(=O)NCc4ccc5c(c4)CN(C4CCC(=O)NC4=O)C5=O)c3)nc3c2CCN(c2cccc4cccc(Cl)c24)C3)C[C@H]1CC#N` (some centres unmarked) [Compound I-71], the half-maximal degradation concentration (DC50) is less than 0.25 µM.

`C=C(F)C(=O)N1CCN(c2nc(OC[C@@H]3CCCN3CCCOCCOCCOCCOCCCCCCCCc3cc(Cl)cc(NC(=O)NCc4ccc5c(c4)CN(C4CCC(=O)NC4=O)C5=O)c3)nc3c2CCN(c2cccc4cccc(Cl)c24)C3)C[C@@H]1CC#N` (some centres unmarked) [Compound I-70] registered a DC50 of less than 0.25 µM.

Compound `COc1cc(N2CCN(C(=O)COCCOCCOCCOCCOCCOCCOCCOCCOc3cc(Cl)cc(NC(=O)NCc4ccc5c(c4)CN(C4CCC(=O)NC4=O)C5=O)c3)CC2)ccc1Nc1ncc(Cl)c(Nc2ccccc2P(C)(C)=O)n1` (centres unmarked) [Compound I-26] showed a DC50 greater than 10 µM.

`C=CC(=O)Nc1cc(Nc2nccc(-c3cn(C)c4ccccc34)n2)c(OC)cc1N(C)CCN(C)CCOCCOCCOCCOCCOCCOCCOCCOCCOCCOCCc1cc(Cl)cc(NC(=O)NCc2ccc3c(c2)CN(C2CCC(=O)NC2=O)C3=O)c1` (centres unmarked) [Compound I-36] yielded a DC50 of 5 to 10 µM.

For the compound `CCN(CCOCCOCCOCCOCCOCCOCCCCCCCCCCCCCCc1cc(Cl)cc(NC(=O)NCc2ccc3c(c2)CN(C2CCC(=O)NC2=O)C3=O)c1)CCOc1ccc(C(=O)c2c(-c3ccc(O)cc3)sc3cc(O)ccc23)cc1` (centres unmarked) [Compound I-56], the 50% degradation concentration (DC50) is greater than 10 µM.

As to `C=CC(=O)Nc1cc(Nc2nccc(-c3cn(C)c4ccccc34)n2)c(OC)cc1N(C)CCN(C)CCOCCOCCOCCOCCOCCOCCc1cc(Cl)cc(NC(=O)NCc2ccc3c(c2)CN(C2CCC(=O)NC2=O)C3=O)c1` (centres unmarked) [Compound I-34], the 50% degradation concentration (DC50) is 5 to 10 µM.

Still in this experiment, the particulars now being: Table 3A; HEK293 LgBiT cells expressing GSPT1_HiBiT, luminescence after 6 hours.
On to `Cc1c(NC(=O)c2ccc(C3CC3)cc2F)cc(F)cc1-c1ncnc(N)c1OCCN(C)C(=O)/C=C/CN(C)CCOCCOCCOCCOCCOCCOCCOCCOCCOCCCCCc1cc(Cl)cc(NC(=O)NCc2ccc3c(c2)CN(C2CCC(=O)NC2=O)C3=O)c1` (centres unmarked) [Compound I-129], for which the DC50 is 0.25 to 5 µM.

`CCN(CCOCCOCCOCCOCCCCCCCCc1cc(Cl)cc(NC(=O)NCc2ccc3c(c2)CN(C2CCC(=O)NC2=O)C3=O)c1)CCOc1ccc(C(=O)c2c(-c3ccc(O)cc3)sc3cc(O)ccc23)cc1` (centres unmarked) [Compound I-77] showed a DC50 of less than 0.25 µM.

For the compound `Nc1ncnc2c1c(-c1ccc(Oc3ccccc3)cc1)nn2[C@@H]1CCCN(C(=O)/C=C/COCCOCCOCCOCCOCCOCCOCCOCCOCCCCCCCCc2cc(Cl)cc(NC(=O)NCc3ccc4c(c3)CN(C3CCC(=O)NC3=O)C4=O)c2)C1` (some centres unmarked) [Compound I-93], the DC50 is less than 0.25 µM.

In the case of `CN(C/C=C/C(=O)N1CCN(c2nc(OC[C@@H]3CCCN3C)nc3c2CCN(c2cccc4cccc(Cl)c24)C3)C[C@@H]1CC#N)CCOCCOCCOCCOCCOCCCCCc1cc(Cl)cc(NC(=O)NCc2ccc3c(c2)CN(C2CCC(=O)NC2=O)C3=O)c1` (some centres unmarked) [Compound I-108], the DC50 was in the range of 0.25 to 5 µM.

`CN(C/C=C/C(=O)N1CCN(c2nc(OC[C@@H]3CCCN3C)nc3c2CCN(c2cccc4cccc(Cl)c24)C3)C[C@@H]1CC#N)CCOCCOCCOCCOCCOCCOCCCCCCCCc1cc(Cl)cc(NC(=O)NCc2ccc3c(c2)CN(C2CCC(=O)NC2=O)C3=O)c1` (some centres unmarked) [Compound I-84] yielded a DC50 of less than 0.25 µM.

Compound `Cc1ccc(NC(=O)NC(CCCCCOCCOCCOCCN(C)C/C=C/C(=O)N2CCN(c3nc(OC[C@@H]4CCCN4C)nc4c3CCN(c3cccc5cccc(Cl)c35)C4)C[C@@H]2CC#N)c2ccc3c(c2)CN(C2CCC(=O)NC2=O)C3=O)cc1Cl` (some centres unmarked) [Compound I-115] showed a DC50 of 5 to 10 µM.

Compound `CN(C/C=C/C(=O)N1CCC[C@@H](n2nc(-c3ccc(Oc4ccccc4)cc3)c3c(N)ncnc32)C1)CCOCCOCCOCCOCCOCCOCCOCCCCCc1cc(Cl)cc(NC(=O)NCc2ccc3c(c2)CN(C2CCC(=O)NC2=O)C3=O)c1` (some centres unmarked) [Compound I-111] displayed a DC50 of 0.25 to 5 µM.

The compound `C=CC(=O)N1CCN(c2nc(=O)n(-c3c(C)cc(OCCOCCOCCOCCOCCOCCCCCc4cc(Cl)cc(NC(=O)NCc5ccc6c(c5)CN(C5CCC(=O)NC5=O)C6=O)c4)nc3C(C)C)c3nc(-c4c(O)cccc4F)c(F)cc23)[C@@H](C)C1` (some centres unmarked) [Compound I-149] displayed a half-maximal degradation concentration (DC50) of 0.25 to 5 µM.

Regarding `C=CC(=O)N1CCN(c2nc(=O)n(-c3c(C)cc(OCCOCCOCCOCCOCCOCCOCCOCCOCCOCCCCCc4cc(Cl)cc(NC(=O)NCc5ccc6c(c5)CN(C5CCC(=O)NC5=O)C6=O)c4)nc3C(C)C)c3nc(-c4c(O)cccc4F)c(F)cc23)[C@@H](C)C1` (some centres unmarked) [Compound I-154], the DC50 lay within 0.25 to 5 µM.

As for `CN(C/C=C/C(=O)N1CCN(c2nc(OC[C@@H]3CCCN3C)nc3c2CCN(c2cccc4cccc(Cl)c24)C3)C[C@@H]1CC#N)CCOCCOCCOCCOCCOCCOCCOCCOCCOCCCCCc1cc(Cl)cc(NC(=O)NCc2ccc3c(c2)CN(C2CCC(=O)N(C)C2=O)C3=O)c1` (some centres unmarked) [Compound I-164], the DC50 was 5 to 10 µM.

On to `Nc1ncnc2c1c(-c1ccc(Oc3ccccc3)cc1)nn2[C@@H]1CCCN(C(=O)/C=C/COCCOCCOCCOCCOCCOCCOCCOCCOCCOCCOCCCCCCCCc2cc(Cl)cc(NC(=O)NCc3ccc4c(c3)CN(C3CCC(=O)NC3=O)C4=O)c2)C1` (some centres unmarked) [Compound I-94], for which the DC50 lay within 0.25 to 5 µM.

Regarding `C=C(F)C(=O)N1CCN(c2nc(OC[C@@H]3CCCN3CCCOCCOCCOCCOCCOCCOCCOCCOCCOCCOCCCCCCCCc3cc(Cl)cc(NC(=O)NCc4ccc5c(c4)CN(C4CCC(=O)NC4=O)C5=O)c3)nc3c2CCN(c2cccc4cccc(Cl)c24)C3)C[C@@H]1CC#N` (some centres unmarked) [Compound I-80], the half-maximal degradation concentration (DC50) was 0.25 to 5 µM.

`C=CC(=O)NC1CN(c2nc(Nc3cn(CCOCCOCCOCCOCCOCCOCCOCCOCCOCCCCCc4cc(Cl)cc(NC(=O)NCc5ccc6c(c5)CN(C5CCC(=O)NC5=O)C6=O)c4)nc3OC)c3ncn(C)c3n2)C[C@H]1F` (some centres unmarked) [Compound I-126]: the half-maximal degradation concentration (DC50) lay in the range of 0.25 to 5 µM.

As for `C=CC(=O)Nc1cc(Nc2nccc(-c3cn(C)c4ccccc34)n2)c(OC)cc1N(C)CCN(C)CCOCCOCCOCCOCCOCCOCCOCCCCCc1cc(Cl)cc(NC(=O)NCc2ccc3c(c2)CN(C2CCC(=O)NC2=O)C3=O)c1` (centres unmarked) [Compound I-139], the DC50 lay within 0.25 to 5 µM.

As for `C=C(F)C(=O)N1CCN(c2nc(OC[C@@H]3CCCN3CCCOCCOCCOCCOCCOCCCCCc3ccc(Cl)cc3NC(=O)NCc3ccc4c(c3)CN(C3CCC(=O)NC3=O)C4=O)nc3c2CCN(c2cccc4cccc(Cl)c24)C3)C[C@@H]1CC#N` (some centres unmarked) [Compound I-140], the half-maximal degradation concentration (DC50) was in the range of 0.25 to 5 µM.

For the compound `COc1cc(N2CCN(C(=O)COCCOCCOCCOCCOCCOCCOCCOCCOCCCCCc3cc(Cl)cc(NC(=O)NCc4ccc5c(c4)CN(C4CCC(=O)NC4=O)C5=O)c3)CC2)ccc1Nc1ncc(Cl)c(Nc2ccccc2P(C)(C)=O)n1` (centres unmarked) [Compound I-141], the DC50 is 0.25 to 5 µM.

Compound `C=CC(=O)N1CCN(c2nc(=O)n(-c3c(C)cc(OCCOCCOCCOCCOCCOCCOCCOCCOCCOCCOCCOCCCCCc4cc(Cl)cc(NC(=O)NCc5ccc6c(c5)CN(C5CCC(=O)NC5=O)C6=O)c4)nc3C(C)C)c3nc(-c4c(O)cccc4F)c(F)cc23)[C@@H](C)C1` (some centres unmarked) [Compound I-165] registered a DC50 of 0.25 to 5 µM.

Compound `Cc1ccc(NC(=O)NC(CCCCCOCCOCCOCCOCCOCCN(C)C/C=C/C(=O)N2CCN(c3nc(OC[C@@H]4CCCN4C)nc4c3CCN(c3cccc5cccc(Cl)c35)C4)C[C@@H]2CC#N)c2ccc3c(c2)CN(C2CCC(=O)NC2=O)C3=O)cc1Cl` (some centres unmarked) [Compound I-114] displayed a DC50 greater than 10 µM.

In turn, `C=C(F)C(=O)N1CCN(c2nc(OC[C@@H]3C[C@@H](OCCOCCOCCOCCOCCCCCCCCc4cccc(NC(=O)NCc5ccc6c(c5)CN(C5CCC(=O)NC5=O)C6=O)c4)CN3C)nc3c2CCN(c2cccc4cccc(Cl)c24)C3)C[C@@H]1CC#N` (some centres unmarked) [Compound I-99] registered a DC50 of 0.25 to 5 µM.

`Cc1c(NC(=O)c2ccc(C3CC3)cc2F)cc(F)cc1-c1ncnc(N)c1OCCN(C)C(=O)/C=C/CN(C)CCOCCOCCOCCOCCOCCOCCOCCOCCOCCOCCCCCCCCc1cc(Cl)cc(NC(=O)NCc2ccc3c(c2)CN(C2CCC(=O)NC2=O)C3=O)c1` (centres unmarked) [Compound I-98]: the DC50 was less than 0.25 µM.

Regarding `C=C(F)C(=O)N1CCN(c2nc(OC[C@@H]3CCCN3CCCOCCOCCOCCOCCOCCCCCc3cc(Cl)cc(NC(=O)NCc4ccc5c(c4)CN(C4CCC(=O)NC4=O)C5=O)c3)nc3c2CCN(c2cccc4cccc(Cl)c24)C3)C[C@@H]1CC#N` (some centres unmarked) [Compound I-133], the DC50 was 0.25 to 5 µM.

The compound `Cc1c(NC(=O)c2ccc(C3CC3)cc2F)cc(F)cc1-c1ncnc(N)c1OCCN(C)C(=O)/C=C/CN(C)CCOCCOCCOCCCCCc1cc(Cl)cc(NC(=O)NCc2ccc3c(c2)CN(C2CCC(=O)NC2=O)C3=O)c1` (centres unmarked) [Compound I-112] returned a 50% degradation concentration (DC50) of 0.25 to 5 µM.
